Test results taken from PubChem BioAssay (NCI).
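Exposure lasted 48 hours, with cells grown in 96-well plates and compounds tested at five concentrations. At the GI50, growth is halved. TGI is the concentration that stops growth completely.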

Legend:
Assay in all cases: NCI anticancer screen, dose series, 48 h
HOP-92 NSCLC = tested on: HOP-92 NSCLC
HCC-2998 colon = tested on: HCC-2998 colon
SN12C renal = tested on: SN12C renal
ACHN renal = tested on: ACHN renal
OVCAR-5 ovarian = tested on: OVCAR-5 ovarian
SK-OV-3 ovarian = tested on: SK-OV-3 ovarian
DU-145 prostate = tested on: DU-145 prostate
A498 renal = tested on: A498 renal
SW-620 colon = tested on: SW-620 colon
SF-539 CNS = tested on: SF-539 CNS
NCI/ADR-RES ovarian = tested on: NCI/ADR-RES ovarian
TK-10 renal = tested on: TK-10 renal
HS 578T breast = tested on: HS 578T breast
SR leukemia = tested on: SR leukemia
NCI-H460 lung = tested on: NCI-H460 lung
COLO 205 colon = tested on: COLO 205 colon
K-562 leukemia = tested on: K-562 leukemia
RPMI-8226 leukemia = tested on: RPMI-8226 leukemia
OVCAR-8 ovarian = tested on: OVCAR-8 ovarian
UACC-62 melanoma = tested on: UACC-62 melanoma
EKVX NSCLC = tested on: EKVX NSCLC
SNB-19 CNS = tested on: SNB-19 CNS
UO-31 renal = tested on: UO-31 renal
786-0 renal = tested on: 786-0 renal
OVCAR-3 ovarian = tested on: OVCAR-3 ovarian
T-47D breast = tested on: T-47D breast
NCI-H226 lung = tested on: NCI-H226 lung
CAKI-1 renal = tested on: CAKI-1 renal
MALME-3M melanoma = tested on: MALME-3M melanoma
HOP-62 NSCLC = tested on: HOP-62 NSCLC
LOX IMVI melanoma = tested on: LOX IMVI melanoma
MDA-MB-231 breast = tested on: MDA-MB-231 breast
SK-MEL-2 melanoma = tested on: SK-MEL-2 melanoma
IGROV1 ovarian = tested on: IGROV1 ovarian
OVCAR-4 ovarian = tested on: OVCAR-4 ovarian
M14 melanoma = tested on: M14 melanoma
SK-MEL-5 melanoma = tested on: SK-MEL-5 melanoma
MDA-MB-435 = tested on: MDA-MB-435
U251 CNS = tested on: U251 CNS
PC-3 prostate = tested on: PC-3 prostate
HCT-116 colon = tested on: HCT-116 colon
HL-60(TB) leukemia = tested on: HL-60(TB) leukemia
KM12 colon = tested on: KM12 colon
RXF 393 renal = tested on: RXF 393 renal
HCT-15 colon = tested on: HCT-15 colon
MOLT-4 leukemia = tested on: MOLT-4 leukemia
CCRF-CEM leukemia = tested on: CCRF-CEM leukemia
SF-295 CNS = tested on: SF-295 CNS
NCI-H23 lung = tested on: NCI-H23 lung
HT29 colon = tested on: HT29 colon
SF-268 CNS = tested on: SF-268 CNS
SK-MEL-28 melanoma = tested on: SK-MEL-28 melanoma
NCI-H522 lung = tested on: NCI-H522 lung
A549 NSCLC = tested on: A549 NSCLC
MCF7 breast = tested on: MCF7 breast
UACC-257 melanoma = tested on: UACC-257 melanoma
SNB-75 CNS = tested on: SNB-75 CNS

## N=c1c2c(=O)n3c(nc2nc2sc4ccc(Cl)cc4n12)-c1ccccc1Sc1ccccc1-3
HOP-92 NSCLC
  GI50: 0.762 µM
  TGI: 6.08 µM
HCC-2998 colon
  GI50: 3.12 µM
  TGI: 12.8 µM
SN12C renal
  GI50: 2.94 µM
  TGI: 14 µM
ACHN renal
  GI50: 2.61 µM
  TGI: 16.9 µM
OVCAR-5 ovarian
  GI50: 4.62 µM
  TGI: 24 µM
SK-OV-3 ovarian
  GI50: 3.7 µM
  TGI: 25.2 µM
DU-145 prostate
  GI50: 4.31 µM
  TGI: 19.7 µM
A498 renal
  GI50: 0.371 µM
  TGI: 3.6 µM
SW-620 colon
  GI50: 3.05 µM
  TGI: 16.1 µM
SF-539 CNS
  GI50: 3.34 µM
  TGI: 18.4 µM
NCI/ADR-RES ovarian
  GI50: 2.05 µM
  TGI: 7.5 µM
TK-10 renal
  GI50: 4.3 µM
  TGI: 47.1 µM
HS 578T breast
  GI50: 2.2 µM
  TGI: 10.1 µM
SR leukemia
  GI50: 2.15 µM
  TGI: 9.14 µM
NCI-H460 lung
  GI50: 2.07 µM
  TGI: 6.98 µM
COLO 205 colon
  GI50: 2.24 µM
  TGI: 5.24 µM
K-562 leukemia
  GI50: 1.61 µM
  TGI: > 100 µM
RPMI-8226 leukemia
  GI50: 1.44 µM
  TGI: > 100 µM
OVCAR-8 ovarian
  GI50: 2.95 µM
  TGI: 11.8 µM
UACC-62 melanoma
  GI50: 1.28 µM
  TGI: 3.27 µM
EKVX NSCLC
  GI50: 1.42 µM
  TGI: 8.97 µM
SNB-19 CNS
  GI50: 4.31 µM
  TGI: 20.4 µM
UO-31 renal
  GI50: 2.29 µM
  TGI: 9.97 µM
786-0 renal
  GI50: 2.55 µM
  TGI: 6.84 µM
OVCAR-3 ovarian
  GI50: 1.89 µM
  TGI: 8.27 µM
T-47D breast
  GI50: 2.54 µM
  TGI: 7.23 µM
NCI-H226 lung
  GI50: 2.92 µM
  TGI: 21.5 µM
CAKI-1 renal
  GI50: 2.36 µM
  TGI: 12.9 µM
MALME-3M melanoma
  GI50: 2.15 µM
  TGI: 9.21 µM
HOP-62 NSCLC
  GI50: 3.64 µM
  TGI: 28.3 µM
LOX IMVI melanoma
  GI50: 2.69 µM
  TGI: 20.2 µM
MDA-MB-231 breast
  GI50: 2.56 µM
  TGI: 16.2 µM
SK-MEL-2 melanoma
  GI50: 2.07 µM
  TGI: 5.99 µM
IGROV1 ovarian
  GI50: 3.81 µM
  TGI: 18.3 µM
OVCAR-4 ovarian
  GI50: 3.5 µM
  TGI: 19.6 µM
M14 melanoma
  GI50: 2.99 µM
  TGI: 10.6 µM
SK-MEL-5 melanoma
  GI50: 1.42 µM
  TGI: 3.86 µM
MDA-MB-435
  GI50: 2.67 µM
  TGI: 13.1 µM
U251 CNS
  GI50: 2.8 µM
  TGI: 12.6 µM
PC-3 prostate
  GI50: 2.6 µM
  TGI: > 100 µM
HCT-116 colon
  GI50: 2.34 µM
  TGI: 10.3 µM
HL-60(TB) leukemia
  GI50: 2.21 µM
  TGI: 6.63 µM
KM12 colon
  GI50: 2.9 µM
  TGI: 12.4 µM
RXF 393 renal
  GI50: 3.23 µM
  TGI: 16.2 µM
HCT-15 colon
  GI50: 2.96 µM
  TGI: 14.5 µM
MOLT-4 leukemia
  GI50: 1.77 µM
  TGI: 9.64 µM
CCRF-CEM leukemia
  GI50: 2.32 µM
  TGI: > 100 µM
SF-295 CNS
  GI50: 1.41 µM
  TGI: 5.79 µM
NCI-H23 lung
  GI50: 1.9 µM
  TGI: 7.49 µM
HT29 colon
  GI50: 3.8 µM
  TGI: 18 µM
SF-268 CNS
  GI50: 3.52 µM
  TGI: 18.3 µM
SK-MEL-28 melanoma
  GI50: 3.91 µM
  TGI: 16.4 µM
NCI-H522 lung
  GI50: 1.76 µM
  TGI: 11.4 µM
A549 NSCLC
  GI50: 1.98 µM
  TGI: 12.5 µM
MCF7 breast
  GI50: 3.06 µM
  TGI: 21.8 µM
UACC-257 melanoma
  GI50: 3.14 µM
  TGI: 9.39 µM
SNB-75 CNS
  GI50: 2.45 µM
  TGI: 9.66 µM
